Measurements reported in US20230357233A1, “HETEROARYL COMPOUNDS, PREPARATION METHODS AND USES THEREOF” (INVENTISBIO CO., LTD., priority 2020, published 2023).

Legend:
[1] = target: recombinant human KRAS^G12D protein (Homo sapiens, UniProt P01116, G12D); experiment: Temperature-dependent Fluorescence (TdF) KRAS^G12D protein binding assay; settings: 6 μM KRAS^G12D Protein, 10 μM compound, Sypro Orange; Kd calculated from fluorescent shift
Procedure: The TdF assay was conducted in the 96-well-based real-time fluorescence plate reader (ABI 7500 or Roche LightCycler 480). Fluorescent dye Sypro Orange (Sigma) was used to monitor the protein folding-unfolding transition. Protein-compound binding was gauged by the shift in the unfolding transition temperature (ΔTm) acquired with and without compound. […] The sample plate was heated from 30° C. to 95° C. with a thermal ramping rate of […], taking a fluorescence reading every 0.4° C. using a CY3 channel matching the excitation and emission wavelengths of Sypro Orange (λ ex 470 nm; λ em 570 nm). Binding affinity (Kd value) was calculated based on the degree of fluorescent shift of the protein with and without compound.

[2] = target: Ba/F3_KRAS^G12D cells (Homo sapiens, UniProt P01116, G12D, cells depend on it); experiment: Ba/F3 KRAS^G12D cell proliferation assay (cell-titer Glo); assay type: cell-based; settings: cell growth inhibition, treated with the compounds for 3 days, read-out: BaF3_KRAS^G12D IC50
Ba/F3_KRAS^G12D cells, sequence (P01116 whole entry G12D): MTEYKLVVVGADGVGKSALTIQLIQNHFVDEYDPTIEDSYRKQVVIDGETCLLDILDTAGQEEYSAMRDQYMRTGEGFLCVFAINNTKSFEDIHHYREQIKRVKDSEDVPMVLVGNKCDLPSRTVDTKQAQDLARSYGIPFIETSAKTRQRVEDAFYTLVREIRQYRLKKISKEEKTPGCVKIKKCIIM

recombinant human KRAS^G12D protein, sequence (P01116 1-188 isoform P01116-2 G12D): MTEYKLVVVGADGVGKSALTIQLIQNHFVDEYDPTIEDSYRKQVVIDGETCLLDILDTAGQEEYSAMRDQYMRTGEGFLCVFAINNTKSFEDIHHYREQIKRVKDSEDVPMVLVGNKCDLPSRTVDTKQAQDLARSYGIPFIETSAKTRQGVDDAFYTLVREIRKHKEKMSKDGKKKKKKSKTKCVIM

Row | SMILES | Kd [1] | GI50 [2]
1 | Oc1cc(-c2ncc3c(C4CC5CCC(C4)N5)nc(OC[C@@]45CCCN4C[C@H](F)C5)nc3c2F)c2c(Cl)cccc2c1 (stereo partly drawn) [Compound 100] | > 5000 nM | > 5000 nM
2 | Oc1cc(-c2nc(OC[C@@]34CCCN3C[C@H](F)C4)c3ccc(N4CC5CCC(C4)N5)nc3c2Br)c2c(Cl)cccc2c1 [Compound 101] | > 5000 nM | 500 to 5000 nM
3 | Cc1cc(N)nc(-c2nc(C)c3c(N4CC5CCC(C4)N5)nc(OC[C@@]45CCCN4C[C@H](F)C5)nc3c2F)c1C1CC1 [Compound 102] | > 5000 nM | > 5000 nM
4 | Oc1cc(-c2cc3nc(N4CC5CCC(C4)N5)ccc3c(OC[C@@]34CCCN3C[C@H](F)C4)n2)c2ccccc2c1 [Compound 104] | > 5000 nM | > 5000 nM
5 | Cc1cc(N)nc(-c2nc(C)c3c(N4CC5CCC(C4)N5)nc(OC[C@@]45CCCN4C[C@H](F)C5)nc3c2F)c1C(F)(F)F [Compound 105] | 500 to 5000 nM | > 5000 nM
6 | Cc1cc2c(N3CC4CCC(C3)N4)nc(OCC34CCCN3CCC4)nc2c(=O)n1-c1cccc2ccccc12 [Compound 107] | > 5000 nM | 500 to 5000 nM
7 | O=c1c2nc(OCC34CCCN3CCC4)nc(N3CC4CCC(C3)N4)c2ccn1-c1cccc2ccccc12 [Compound 108] | > 5000 nM | > 5000 nM
8 | O=c1cc2c(N3CC4CCC(C3)N4)nc(OCC34CCCN3CCC4)nc2cn1-c1cc(O)cc2ccccc12 [Compound 109] | > 5000 nM | > 5000 nM
9 | O=c1cc2c(N3CC4CCC(C3)N4)nc(OCC34CCCN3CCC4)nc2cn1-c1cccc2ccccc12 [Compound 110] | > 5000 nM | 500 to 5000 nM
10 | O=c1cc2c(N3CC4CCC(C3)N4)nc(OCC34CCCN3CCC4)nc2cn1-c1cc(O)cc2cccc(Cl)c12 [Compound 111] | > 5000 nM | > 5000 nM
11 | Oc1cc(-c2ncc3c(N4CC5CCC(C4)N5)nc(OC[C@@]45CCCN4C[C@H](F)C5)nc3c2F)c2c(Cl)cccc2c1 [Compound 112] | ≤ 500 nM | < 500 nM
12 | CCc1cccc2cc(O)cc(-c3nc(Cl)c4c(N5CC6CCC(C5)N6)nc(OC[C@@]56CCCN5C[C@H](F)C6)nc4c3F)c12 [Compound 113] | ≤ 500 nM | < 500 nM
13 | Oc1cc(-c2nc(Cl)c3c(N4CC5CCC(C4)N5)nc(OC[C@@]45CCCN4C[C@H](F)C5)nc3c2F)c2c(Cl)cccc2c1 [Compound 114] | ≤ 500 nM | < 500 nM
14 | Cc1nc(-c2cc(C(F)F)cc3cccc(Cl)c23)c(F)c2nc(OC[C@@]34CCCN3C[C@H](F)C4)nc(N3CC4CCC(C3)N4)c12 [Compound 116] | > 5000 nM | 500 to 5000 nM
15 | Oc1cc(-c2nc(Cl)c3c(N4CC5CCC(C4)N5)nc(OC[C@@]45CCCN4C[C@H](F)C5)nc3c2Cl)c2c(Cl)cccc2c1 [Compound 120] | ≤ 500 nM | < 500 nM
16 | CCc1cccc2cc(O)cc(-c3cc4nc(OC[C@@]56CCCN5C[C@H](F)C6)nc(N5CC6CCC(C5)N6)c4c(C)n3)c12 [Compound 121] | ≤ 500 nM | 500 to 5000 nM
17 | CCc1cccc2cc(O)cc(-c3nc(C)c4c(N5CC6CCC(C5)N6)nc(OC[C@@]56CCCN5C[C@H](F)C6)nc4c3C3CC3)c12 [Compound 122] | > 5000 nM | 500 to 5000 nM
18 | Cc1nc(-c2cccc3cccc(CCC#N)c23)c(F)c2nc(OC[C@@]34CCCN3C[C@H](F)C4)nc(N3CC4CCC(C3)N4)c12 [Compound 123] | > 5000 nM | 500 to 5000 nM
19 | CCc1cccc2cc(O)cc(-c3nc(OC)c4c(N5CC6CCC(C5)N6)nc(OC[C@@]56CCCN5C[C@H](F)C6)nc4c3F)c12 [Compound 125] | ≤ 500 nM | < 500 nM
20 | Cc1nc(-c2cc(O)cc3cccc(Cl)c23)c(Cl)c2nc(OC[C@@]34CCCN3C[C@H](F)C4)nc(N3CC4CCC(C3)N4)c12 [Compound 130] | ≤ 500 nM | < 500 nM
21 | C#Cc1c(F)ccc2cc(O)cc(-c3cc4nc(OC[C@@]56CCCN5C[C@H](F)C6)nc(N5CC6CCC(C5)N6)c4c(C)n3)c12 [Compound 131] | ≤ 500 nM | < 500 nM
22 | CCc1cccc2cc(O)cc(-c3nc(C(F)F)c4c(N5CC6CCC(C5)N6)nc(OC[C@@]56CCCN5C[C@H](F)C6)nc4c3F)c12 [Compound 136] | ≤ 500 nM | < 500 nM
23 | C#Cc1c(F)ccc2cc(O)cc(-c3nc(Cl)c4c(N5CC6CCC(C5)N6)nc(OC[C@@H]5CCCN5C)nc4c3F)c12 [Compound 159] | ≤ 500 nM | < 500 nM
24 | C#Cc1c(F)ccc2cc(O)cc(-c3nc(OC)c4c(N5CC6CCC(C5)N6)nc(OC[C@@H]5CCCN5C)nc4c3F)c12 [Compound 160] | ≤ 500 nM | < 500 nM
25 | C#Cc1c(F)ccc2cc(N)cc(-c3nc(OC)c4c(N5CC6CCC(C5)N6)nc(OC[C@@]56CCCN5C[C@H](F)C6)nc4c3F)c12 [Compound 163] | ≤ 500 nM | < 500 nM
26 | C#Cc1c(F)ccc2cc(O)cc(-c3nc(C(F)F)c4c(N5CC6CCC(C5)N6)nc(OC[C@@]56CCCN5C[C@H](F)C6)nc4c3F)c12 [Compound 165] | ≤ 500 nM | < 500 nM
27 | C#Cc1c(F)ccc2cc(O)cc(-c3nc(OC(C)C)c4c(N5CC6CCC(C5)N6)nc(OC[C@@]56CCCN5C[C@H](F)C6)nc4c3F)c12 [Compound 171] | ≤ 500 nM | < 500 nM

Now from value to compound:

Row | Kd [1] | GI50 [2] | SMILES
28 | ≤ 500 nM | < 500 nM | C#Cc1cccc2cc(O)cc(-c3nc(C)c4c(N5CC6CCC(C5)N6)nc(OC[C@@]56CCCN5C[C@H](F)C6)nc4c3F)c12 [Compound 103]
29 | ≤ 500 nM | < 500 nM | Cc1nc(-c2cc(O)cc3cccc(C(F)(F)F)c23)c(F)c2nc(OC[C@@]34CCCN3C[C@H](F)C4)nc(N3CC4CCC(C3)N4)c12 [Compound 106]
30 | ≤ 500 nM | > 5000 nM | Cc1nc(-c2cc(O)cc3cccc(C#N)c23)c(F)c2nc(OC[C@@]34CCCN3C[C@H](F)C4)nc(N3CC4CCC(C3)N4)c12 [Compound 115]
31 | ≤ 500 nM | < 500 nM | CCc1cccc2cc(O)cc(-c3nc(C)c4c(N5CC6CCC(C5)N6)nc(OC[C@@]56CCCN5C[C@H](F)C6)nc4c3C)c12 [Compound 117]
32 | ≤ 500 nM | < 500 nM | CCc1cccc2cc(O)cc(-c3nc(CC)c4c(N5CC6CCC(C5)N6)nc(OC[C@@]56CCCN5C[C@H](F)C6)nc4c3F)c12 [Compound 118]
33 | 500 to 5000 nM | > 5000 nM | Cc1nc(-c2cc(O)cc3cccc(CCC#N)c23)c(F)c2nc(OC[C@@]34CCCN3C[C@H](F)C4)nc(N3CC4CCC(C3)N4)c12 [Compound 119]
34 | ≤ 500 nM | < 500 nM | CCc1cccc2c(F)c(O)cc(-c3nc(C)c4c(N5CC6CCC(C5)N6)nc(OC[C@@]56CCCN5C[C@H](F)C6)nc4c3F)c12 [Compound 124]
35 | ≤ 500 nM | < 500 nM | Cc1nc(-c2cc(O)cc3ccc(F)c(Cl)c23)c(F)c2nc(OC[C@@]34CCCN3C[C@H](F)C4)nc(N3CC4CCC(C3)N4)c12 [Compound 126]
36 | ≤ 500 nM | < 500 nM | C#Cc1c(F)ccc2cc(O)cc(-c3nc(C)c4c(N5CC6CCC(C5)N6)nc(OC[C@@]56CCCN5C[C@H](F)C6)nc4c3F)c12 [Compound 128]
37 | ≤ 500 nM | < 500 nM | C#Cc1c(F)ccc2cc(O)cc(-c3nc(Cl)c4c(N5CC6CCC(C5)N6)nc(OC[C@@]56CCCN5C[C@H](F)C6)nc4c3F)c12 [Compound 132]
38 | ≤ 500 nM | 500 to 5000 nM | CCc1cccc2cc(O)cc(-c3nc(O)c4c(N5CC6CCC(C5)N6)nc(OC[C@@]56CCCN5C[C@H](F)C6)nc4c3F)c12 [Compound 133]
39 | ≤ 500 nM | < 500 nM | C#Cc1c(F)ccc2cc(O)cc(-c3nc(C)c4c(N5CC6CCC(C5)N6)nc(OC[C@@]56CCCN5C[C@H](F)C6)nc4c3Cl)c12 [Compound 134]
40 | ≤ 500 nM | < 500 nM | C#Cc1c(F)ccc2cc(O)cc(-c3nc(OC)c4c(N5CC6CCC(C5)N6)nc(OC[C@@]56CCCN5C[C@H](F)C6)nc4c3F)c12 [Compound 135]
41 | ≤ 500 nM | < 500 nM | CCc1c(F)ccc2cc(O)cc(-c3nc(C)c4c(N5CC6CCC(C5)N6)nc(OC[C@@]56CCCN5C[C@H](F)C6)nc4c3F)c12 [Compound 137]
42 | ≤ 500 nM | < 500 nM | CCc1c(F)ccc2cc(O)cc(-c3nc(Cl)c4c(N5CC6CCC(C5)N6)nc(OC[C@@]56CCCN5C[C@H](F)C6)nc4c3F)c12 [Compound 138]
43 | ≤ 500 nM | < 500 nM | CCc1c(F)ccc2cc(O)cc(-c3nc(OC)c4c(N5CC6CCC(C5)N6)nc(OC[C@@]56CCCN5C[C@H](F)C6)nc4c3F)c12 [Compound 139]
44 | ≤ 500 nM | < 500 nM | C#Cc1c(F)ccc2cc(O)cc(-c3nc(OCC)c4c(N5CC6CCC(C5)N6)nc(OC[C@@]56CCCN5C[C@H](F)C6)nc4c3F)c12 [Compound 141]
45 | ≤ 500 nM | < 500 nM | COc1c(F)ccc2cc(O)cc(-c3nc(OC)c4c(N5CC6CCC(C5)N6)nc(OC[C@@]56CCCN5C[C@H](F)C6)nc4c3F)c12 [Compound 147]
46 | ≤ 500 nM | < 500 nM | CCOc1c(F)ccc2cc(O)cc(-c3nc(OC)c4c(N5CC6CCC(C5)N6)nc(OC[C@@]56CCCN5C[C@H](F)C6)nc4c3F)c12 [Compound 148]
47 | ≤ 500 nM | < 500 nM | CCc1c(F)ccc2cc(O)cc(-c3nc(C(F)F)c4c(N5CC6CCC(C5)N6)nc(OC[C@@]56CCCN5C[C@H](F)C6)nc4c3F)c12 [Compound 166]
48 | ≤ 500 nM | < 500 nM | CCOc1nc(-c2cc(O)cc3ccc(F)c(Cl)c23)c(F)c2nc(OC[C@@]34CCCN3C[C@H](F)C4)nc(N3CC4CCC(C3)N4)c12 [Compound 173]
